Test results taken from PubChem BioAssay AID248 (DTP/NCI, 2004).
Where “and” joins values, the source holds several entries; their conditions need not be identical. Equal entries are not always repeated. Inconclusive results and toxic doses are left out. Cut-off read from the data, not from the text of the source: active = T/C of 150% or more; inactive = T/C below 125%.

Tested on: L1210 leukemia ip in BDF1 mice, survival T/C
Test: NCI In Vivo Anticancer Drug Screen. Data for tumor model L1210 Leukemia (intraperitoneal) in B6D2F1 (BDF1) mice
Details: endpoint: mean survival time, higher = longer survival
In short: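 Transplanted-tumor mice were given test agent; controls received vehicle only. Survival readings from the two groups were divided (treated over control).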

[1] = dose: 100.0 mg/kg/injection, schedule: Q01DX009 (ip), vehicle: Klucel (hydroxypropylcellulose) (HPC)
[2] = dose: 100.0 mg/kg/injection, schedule: Q04DX003 (ip), vehicle: Klucel (hydroxypropylcellulose) (HPC)
[3] = dose: 200.0 mg/kg/injection, schedule: Q01DX009 (ip), vehicle: Klucel (hydroxypropylcellulose) (HPC)
[4] = dose: 200.0 mg/kg/injection, schedule: Q04DX003 (ip), vehicle: Klucel (hydroxypropylcellulose) (HPC)
[5] = dose: 400.0 mg/kg/injection, schedule: Q01DX009 (ip), vehicle: Klucel (hydroxypropylcellulose) (HPC)
[6] = dose: 400.0 mg/kg/injection, schedule: Q04DX003 (ip), vehicle: Klucel (hydroxypropylcellulose) (HPC)
[7] = dose: 100.0 mg/kg/injection, schedule: Q04DX002 (ip), vehicle: Klucel (hydroxypropylcellulose) (HPC)
[8] = dose: 200.0 mg/kg/injection, schedule: Q04DX002 (ip), vehicle: Klucel (hydroxypropylcellulose) (HPC)
[9] = dose: 400.0 mg/kg/injection, schedule: Q04DX002 (ip), vehicle: saline with Tween-80
[10] = dose: 400.0 mg/kg/injection, schedule: Q04DX003 (ip), vehicle: saline with Tween-80
[11] = dose: 100.0 mg/kg/injection, schedule: Q01DX001 (ip), vehicle: carboxymethylcellulose (CMC)
[12] = dose: 200.0 mg/kg/injection, schedule: Q01DX001 (ip), vehicle: carboxymethylcellulose (CMC)
[13] = dose: 400.0 mg/kg/injection, schedule: Q01DX001 (ip), vehicle: carboxymethylcellulose (CMC)
[14] = dose: 100.0 mg/kg/injection, schedule: Q01DX009 (ip), vehicle: saline with Tween-80
[15] = dose: 100.0 mg/kg/injection, schedule: Q04DX003 (ip), vehicle: saline with Tween-80
[16] = dose: 200.0 mg/kg/injection, schedule: Q01DX009 (ip), vehicle: saline with Tween-80
[17] = dose: 200.0 mg/kg/injection, schedule: Q04DX003 (ip), vehicle: saline with Tween-80
[18] = dose: 400.0 mg/kg/injection, schedule: Q01DX009 (ip), vehicle: saline with Tween-80

Measured: T/C

O=C1N(c2nncs2)CCN1[N+](=O)[O-]
inactive: [1] 95 % of control | [2] 95 % of control | [3] 98 % of control | [4] 98 % of control | [5] 103 % of control | [6] 102 % of control

c1ccc(CCN2CCCCC2)nc1
inactive: dose: 1.56 mg/kg/injection, schedule: Q01DX009 (ip), vehicle: saline 94 % of control | dose: 3.13 mg/kg/injection, schedule: Q01DX009 (ip), vehicle: saline 93 % of control | dose: 6.25 mg/kg/injection, schedule: Q01DX009 (ip), vehicle: saline 89 % of control

C1CN(SSN2CCOCC2)CCO1
inactive: dose: 12.5 mg/kg/injection, schedule: Q04DX003 (ip), vehicle: Klucel (hydroxypropylcellulose) (HPC) 89 % of control | dose: 25.0 mg/kg/injection, schedule: Q04DX003 (ip), vehicle: Klucel (hydroxypropylcellulose) (HPC) 110 % of control | dose: 50.0 mg/kg/injection, schedule: Q04DX003 (ip), vehicle: Klucel (hydroxypropylcellulose) (HPC) 89 % of control | [4] 102 % of control

O=C(Nc1ccc(C(=O)c2ccccc2)cc1)c1ccc(C(=O)Nc2ccc(C(=O)c3ccccc3)cc2)cc1
inactive: dose: 100.0 mg/kg/injection, schedule: Q01DX001 (ip), vehicle: other 93 % of control | dose: 200.0 mg/kg/injection, schedule: Q01DX001 (ip), vehicle: other 86 % of control | dose: 400.0 mg/kg/injection, schedule: Q01DX001 (ip), vehicle: other 89 % of control

CCOC(=O)c1cnc(SC)nc1Nc1cccc(Cl)c1
inactive: [1] 97 % of control | [2] 90 % of control | [4] 92 % of control | [5] 90 % of control | [6] 88 % of control

O=C(O)c1c(Cl)c(Cl)c(Cl)c(Cl)c1-c1c2ccc(=O)c(O)c-2oc2c(O)c(O)ccc12
inactive: dose: 100.0 mg/kg/injection, schedule: Q04DX003 (ip), vehicle: saline 102 % of control | dose: 200.0 mg/kg/injection, schedule: Q04DX003 (ip), vehicle: saline 93 % of control

Cc1ccc(NC(=O)CBr)cc1
inactive: dose: 50.0 mg/kg/injection, schedule: Q01DX001 (ip), vehicle: other 96 % of control

O=C(NCc1ccncc1)Nc1ccccc1F
inactive: dose: 100.0 mg/kg/injection, schedule: Q01DX001 (ip), vehicle: Klucel (hydroxypropylcellulose) (HPC) 93 % of control | [1] 100 % of control | [7] 94 % of control and 103 % of control | [2] 94 % of control | dose: 200.0 mg/kg/injection, schedule: Q01DX001 (ip), vehicle: Klucel (hydroxypropylcellulose) (HPC) 104 % of control | [3] 98 % of control and 105 % of control | [8] 101 % of control and 91 % of control | [4] 97 % of control

COc1ccc(S(=O)Nc2ccccc2)cc1 (stereo not given)
inactive: dose: 25.6 mg/kg/injection, schedule: Q04DX002 (ip), vehicle: saline with Tween-80 108 % of control | dose: 64.0 mg/kg/injection, schedule: Q04DX002 (ip), vehicle: saline with Tween-80 115 % of control | dose: 160.0 mg/kg/injection, schedule: Q04DX002 (ip), vehicle: saline with Tween-80 101 % of control | [9] 112 % of control | [10] 95 % of control

CO/N=C1\C(C)(C)C(C)(C)C(C)(C)C1(C)SS(=O)(=O)O (stereo not given)
inactive: dose: 100.0 mg/kg/injection, schedule: Q04DX002 (ip), vehicle: saline 90 % of control | dose: 200.0 mg/kg/injection, schedule: Q04DX002 (ip), vehicle: saline 101 % of control | dose: 400.0 mg/kg/injection, schedule: Q04DX002 (ip), vehicle: saline 107 % of control

N#CCCCc1ccc(C(=O)O)cc1
inactive: [11] 95 % of control | [12] 100 % of control | [13] 97 % of control

Cc1ccc2ccccc2c1
inactive: [7] 91 % of control | [8] 95 % of control

COC(=O)c1cc(C)c(I)c([N+](=O)[O-])c1
inactive: [1] 109 % of control | [3] 102 % of control | [5] 98 % of control

O=C1/C(=C2\CCc3ccccc32)Cc2ccccc21
inactive: dose: 12.5 mg/kg/injection, schedule: Q04DX002 (ip), vehicle: saline 99 % of control | dose: 25.0 mg/kg/injection, schedule: Q04DX002 (ip), vehicle: saline 96 % of control | dose: 50.0 mg/kg/injection, schedule: Q04DX002 (ip), vehicle: saline 96 % of control

NC(=O)NC1OC(COC(=O)c2ccccc2)C(OC(=O)c2ccccc2)C1OC(=O)c1ccccc1 (stereo not given)
inactive: [14] 89 % of control | [15] 92 % of control | [16] 90 % of control | [17] 94 % of control | [18] 89 % of control | [10] 94 % of control

O=[N+]([O-])c1cccc2c1C1c3ccccc3C2c2ccccc21
inactive: dose: 50.0 mg/kg/injection, schedule: Q01DX001 (ip), vehicle: carboxymethylcellulose (CMC) 93 % of control | [11] 93 % of control | [12] 96 % of control | [13] 96 % of control

O=c1c2ccccc2nc2sc3ccccc3n12
inactive: dose: 100.0 mg/kg/injection, schedule: Q01DX009 (ip), vehicle: other 93 % of control | dose: 200.0 mg/kg/injection, schedule: Q01DX009 (ip), vehicle: other 107 % of control | dose: 400.0 mg/kg/injection, schedule: Q01DX009 (ip), vehicle: other 103 % of control

O=C(Nc1ccc(F)cc1)Nc1ccc(I)cc1
inactive: [1] 100 % of control and 92 % of control | [3] 100 % of control | [5] 96 % of control and 90 % of control

COc1ccc(C(=O)Nc2ccccc2)cc1NC(=O)Nc1ccccc1C(F)(F)F
inactive: [1] 92 % of control | [3] 101 % of control | [5] 95 % of control

Nc1ccc(S(=O)(=O)c2ccc(NCC(=O)O)cc2)cc1
inactive: dose: 50.0 mg/kg/injection, schedule: Q01DX009 (ip), vehicle: saline with Tween-80 105 % of control | [14] 101 % of control | [15] 89 % of control | [16] 92 % of control | [17] 92 % of control

N#Cc1cccc(OCCCCOc2ccccc2)c1
inactive: [1] 89 % of control | [3] 109 % of control | [5] 95 % of control

Clc1ccc2c(c1)Sc1ccccc1O2
inactive: dose: 100.0 mg/kg/injection, schedule: Q04DX002 (ip), vehicle: saline with Tween-80 101 % of control | dose: 200.0 mg/kg/injection, schedule: Q04DX002 (ip), vehicle: saline with Tween-80 101 % of control | [9] 97 % of control

CC12CCC3(CC1CCC1OC12)OCCO3 (stereo not given)
inactive: [11] 103 % of control | [12] 100 % of control | [13] 97 % of control

C(=N\N(CCCCN(/N=C/c1ccccc1)c1ccccc1)c1ccccc1)/c1ccccc1
inactive: dose: 12.5 mg/kg/injection, schedule: Q01DX009 (ip), vehicle: gum acacia 111 % of control | dose: 25.0 mg/kg/injection, schedule: Q01DX009 (ip), vehicle: gum acacia 96 % of control | dose: 50.0 mg/kg/injection, schedule: Q01DX001 (ip), vehicle: saline 96 % of control | dose: 50.0 mg/kg/injection, schedule: Q01DX009 (ip), vehicle: gum acacia 92 % of control | dose: 100.0 mg/kg/injection, schedule: Q01DX001 (ip), vehicle: saline 104 % of control | dose: 100.0 mg/kg/injection, schedule: Q04DX003 (ip), vehicle: gum acacia 94 % of control | dose: 200.0 mg/kg/injection, schedule: Q01DX001 (ip), vehicle: saline 91 % of control | dose: 200.0 mg/kg/injection, schedule: Q01DX009 (ip), vehicle: gum acacia 87 % of control | dose: 200.0 mg/kg/injection, schedule: Q04DX003 (ip), vehicle: gum acacia 89 % of control | dose: 400.0 mg/kg/injection, schedule: Q01DX001 (ip), vehicle: saline 98 % of control | dose: 400.0 mg/kg/injection, schedule: Q01DX009 (ip), vehicle: gum acacia 86 % of control | dose: 400.0 mg/kg/injection, schedule: Q04DX003 (ip), vehicle: gum acacia 91 % of control

CC(=O)Nc1ccc(S(=O)(=O)Nc2cc(Cl)ccc2Cl)cc1
inactive: [14] 103 % of control | [16] 102 % of control | [18] 97 % of control

COc1cc(CC(=O)O)c(OC)cc1CC(=O)O
inactive: [14] 101 % of control | [15] 93 % of control | [16] 99 % of control | [17] 96 % of control | [18] 94 % of control | [10] 94 % of control
